Assay results published in article PMC9775652, “Concomitant Administration of Red Ginseng Extract with Lactic Acid Bacteria Increases the Plasma Concentration of Deglycosylated Ginsenosides in Healthy Human Subjects” (Biomolecules, 2022).
Like-named read-outs stand apart in the source and are kept apart here. Values belong to the compound of their own block, whether it stands above or below them.

Key:
[1] = set-up: method as in PMID 34575573; settings: mice, LAB supplementation (Lacto-fit) for two weeks; cited from earlier work
[2] = rat, in vivo, po; cited from earlier work
[3] = target: T1, P-gp (Homo sapiens, UniProt P08183); assay: Transport of ginsenosides in P-gp-overexpressing LLC-PK1-P-gp cells; type: in vitro ADME; settings: pig
T1 construct: host or cells: LLC-PK1-P-gp cells (passage no. 25–28)
Description: LLC-PK1-P-gp cells (passage no. 25–28) were seeded onto collagen-coated permeable support (1.0 μm pore size) in 24-well plates at a density of 2.5 × 10^4 cells/insert and grown for 5 days with TEER values of over 500 Ω·cm^2 [24]. The A to B transport and B to A transport of GRg3, GRh2, CK, PPD, GRg1, GRh1, and PPT (20 μM each) were measured as previously described. The concentration dependency in the B to A transport of GRh2, CK, PPD, and PPT was measured in the range of 6.25–200 μM for GRh2, CK, PPD, and PPT.
(§1) For the transport study of ginsenosides in CaCo-2 cells and LLC-PK1-P-gp cells, the ginsenoside transport rate in the A to B or B to A directions was calculated from the slope of the regression line from the mean transported amounts versus time plot. The apparent permeability (Papp) was calculated using Equation (1). (1) Papp (×10^−6 cm/s)=transport rate (nmol/min)/concentration(μM)×area(cm^2)×60s
(§2) The efflux ratio was calculated by dividing the Papp of ginsenosides from the B to A direction by that from the A to B direction.
To measure the kinetic parameters of the concentration dependence on the P-gp-mediated ginsenoside efflux, the ginsenoside transport rate in the B to A direction (ν) versus the ginsenoside concentration (S) plot was fitted in the Michaelis–Menten Equation (2) using Sigma Plot (version 12.0, Systat Software Inc. Chicago, IL, USA). (2) ν=Vmax×S/Km+S

[4] = Pharmacokinetic study of ginsenosides in healthy humans after repeated oral RGE with or without LAB; type: in vivo, human; settings: human, in vivo, po; for AUC: 104.1 mg
Description: A single-sequence study consisting of two periods was conducted on five healthy male subjects (body weight > 50 kg and age > 19 years) for 29 days. During the first period of the study (RGE treatment group), three pouches of RGE (30 mL, 104.1 mg of total ginsenosides) were administered to 5 subjects once daily for 14 days. On the 14th day, the subjects were admitted to the Clinical Trial Center of KNUH at 7 AM and underwent the last RGE administration at approximately 8–9 AM. Blood samples (approximately 3 mL) were collected at 0, 4, 6, 8, 10, 12, 13, 14, and 24 h after the last dose. A saline-locked angiocatheter was placed on the forearm of each subject’s hand. After discarding 1 mL of blood derived from the catheter, 3 mL of blood was drawn into a vacutainer tube containing heparin and centrifuged at 3000× g for 10 min. The supernatant plasma samples were stored at −80 °C until ginsenoside analysis.
In the second half of the study (RGE + LAB treatment group), 3 pouches of RGE (30 mL, 104.1 mg of total ginsenosides) and 1 pouch of LAB (1 billion CFU/2 g) were co-administered once daily for 14 days. On the […], the subjects were admitted to the Clinical Trial Center of KNUH at 7 AM and received the last red ginseng dose at approximately 8–9 AM. Blood samples (approximately 3 mL) were withdrawn at 0, 4, 6, 8, 10, 12, 13, 14, and 24 h intervals after the last dose and centrifuged at 3000× g for 10 min; the supernatant plasma samples were stored at −80 °C.
Briefly, to analyze GRb1, GRb2, GRc, GRd, GRe, GRf, GRg1, GRg3, GF1, and GF2, 400 μL of an internal standard (IS; 0.05 ng/mL berberine in methanol) was added to 100 μL of plasma. The mixture was vortexed for 15 min and centrifuged at 16,000× g for 5 min. After centrifugation, 400 μL of the supernatant was evaporated using a speed-dry vacuum concentrator (Christ, Osterode am Harz, Germany). The residue was reconstituted using 200 μL of 70% methanol supplemented with 0.1% formic acid, and a 10 μL aliquot was injected into the LC-MS/MS system. Chromatographic separation was performed using a Polar RP column (150 × 2.0 mm, 4.0 μm particle size; Phenomenex, Torrance, CA, USA) using a mobile phase consisting of 0.1% formic acid in water (phase A) and 0.1% formic acid in methanol (phase B). The following elution gradient was used: 69% of phase B for 0–2.0 min, 69–85% of phase B for 2.0–4.0 min, and 85–69% of phase B for 6.0–6.5 min. The flow rate was 0.27 mL/min.
The mixture was vortexed for 10 min and centrifuged at 16,000× g for 5 min. After centrifugation, the samples were frozen at −80 °C for 4 h. The upper layer was transferred to a clean tube and evaporated. The residue was reconstituted using 200 μL of 80% methanol supplemented with 0.1% formic acid, and a 10 μL aliquot was injected into the LC-MS/MS system. Chromatographic separation was performed using a Luna C18 column (150 × 2.0 mm, 3.0 μm particle size; Phenomenex, Torrance, CA, USA) and using a mobile phase consisting of water containing 0.1% formic acid: methanol containing 0.1% formic acid = 8:92 (v/v) at a flow rate of 0.15 mL/min.
The quantification of ginsenosides was carried out using multiple reaction monitoring in positive ionization mode, as previously described.
Finally, pharmacokinetic parameters were calculated using non-compartmental methods (WinNonlin version 5.1; Pharsight Co., Certara, NJ, USA). Statistical analysis was performed by Student’s t-test to compare the two groups using IBM SPSS Statistics for Windows (version 25.0; IBM Corp., Armonk, NY, USA). Differences were considered significant at p < 0.05.

[5] = system: LAB; assay: In vitro RGE fermentation with LAB; type: in vitro ADME
Description: (§3) To identify the effects of LAB on ginsenoside metabolism, an in vitro fermentation study was performed according to the method of Jeon et al., with slight modifications. Briefly, RGE (10 mL, 1 pouch) and 2 g LAB (containing 1 billion CFU) were suspended in 10 mL autoclaved MRS broth (550 mg broth powder dissolved in 10 mL water). For the 15 ginsenosides, individual ginsenosides (10 μM each) and 2 g of LAB were suspended in 20 mL of autoclaved MRS broth (550 mg broth powder dissolved in 20 mL water). The mixture was incubated for 7 days in a shaking incubator at 37 °C and 300 rpm, and a 0.1 mL aliquot of the incubation mixture was collected on days 0, 3, 5, and 7. The incubation medium was diluted 100-fold with distilled water and stored at −80 °C to analyze ginsenosides using the LC-MS/MS system.
(§4) To measure the metabolic activity of ginsenosides, the formation rate of ginsenosides (pmol/day) was calculated by dividing the slope of the regression line by the amount of deglycosylated ginsenosides versus the incubation time plot by the initial concentration of individual ginsenosides.

[6] = Transport (permeability) of ginsenosides in CaCo-2 cell monolayers; type: in vitro ADME; settings: human
Description: (§5) CaCo-2 cells (passage no 41–43) were seeded onto collagen-coated permeable support (1.0 μm pore size) in a 24-well plate at a density of 2.5 × 10^4 cells/insert and cultured for 21 days in Dulbecco’s modified eagle’s medium supplemented with 10% fetal bovine serum, 1% non-essential amino acids, and 1% penicillin-streptomycin at 37 °C in a humidified atmosphere (5% CO2/95% air). After confirming that the transepithelial electrical resistance (TEER) of the CaCo-2 cell monolayer was over 400 Ω·cm^2, Apical to basal (A to B) transport and B to A transport of ginsenosides using 50 µM, GRb1 was investigated as previously described. The same permeability study was performed using 50 µM GRb2, GRc, GRd, GRg3, GRh2, GF2, CK, PPD, GRe, GRf, GRg1, GRh1, GF1, or PPT.
as §1, §2

[7] = system: CaCo-2 cells; assay: as above; type: in vitro ADME; settings: Caco-2
Description: as §5, §1, §2

[8] = system: LAB; assay: Incubation of individual ginsenosides with LAB (metabolic pathway); type: in vitro ADME; settings: individual ginsenoside 10 μM with LAB (1 billion CFU), 7 days; GF2 to CK, CK to PPD, GRg1 to GRh1; result in words
Description: as §3, §4

[9] = RGE incubated with LAB (1 billion CFU) for 7 days at 37 °C, result in words

T1 sequence (P08183 whole entry): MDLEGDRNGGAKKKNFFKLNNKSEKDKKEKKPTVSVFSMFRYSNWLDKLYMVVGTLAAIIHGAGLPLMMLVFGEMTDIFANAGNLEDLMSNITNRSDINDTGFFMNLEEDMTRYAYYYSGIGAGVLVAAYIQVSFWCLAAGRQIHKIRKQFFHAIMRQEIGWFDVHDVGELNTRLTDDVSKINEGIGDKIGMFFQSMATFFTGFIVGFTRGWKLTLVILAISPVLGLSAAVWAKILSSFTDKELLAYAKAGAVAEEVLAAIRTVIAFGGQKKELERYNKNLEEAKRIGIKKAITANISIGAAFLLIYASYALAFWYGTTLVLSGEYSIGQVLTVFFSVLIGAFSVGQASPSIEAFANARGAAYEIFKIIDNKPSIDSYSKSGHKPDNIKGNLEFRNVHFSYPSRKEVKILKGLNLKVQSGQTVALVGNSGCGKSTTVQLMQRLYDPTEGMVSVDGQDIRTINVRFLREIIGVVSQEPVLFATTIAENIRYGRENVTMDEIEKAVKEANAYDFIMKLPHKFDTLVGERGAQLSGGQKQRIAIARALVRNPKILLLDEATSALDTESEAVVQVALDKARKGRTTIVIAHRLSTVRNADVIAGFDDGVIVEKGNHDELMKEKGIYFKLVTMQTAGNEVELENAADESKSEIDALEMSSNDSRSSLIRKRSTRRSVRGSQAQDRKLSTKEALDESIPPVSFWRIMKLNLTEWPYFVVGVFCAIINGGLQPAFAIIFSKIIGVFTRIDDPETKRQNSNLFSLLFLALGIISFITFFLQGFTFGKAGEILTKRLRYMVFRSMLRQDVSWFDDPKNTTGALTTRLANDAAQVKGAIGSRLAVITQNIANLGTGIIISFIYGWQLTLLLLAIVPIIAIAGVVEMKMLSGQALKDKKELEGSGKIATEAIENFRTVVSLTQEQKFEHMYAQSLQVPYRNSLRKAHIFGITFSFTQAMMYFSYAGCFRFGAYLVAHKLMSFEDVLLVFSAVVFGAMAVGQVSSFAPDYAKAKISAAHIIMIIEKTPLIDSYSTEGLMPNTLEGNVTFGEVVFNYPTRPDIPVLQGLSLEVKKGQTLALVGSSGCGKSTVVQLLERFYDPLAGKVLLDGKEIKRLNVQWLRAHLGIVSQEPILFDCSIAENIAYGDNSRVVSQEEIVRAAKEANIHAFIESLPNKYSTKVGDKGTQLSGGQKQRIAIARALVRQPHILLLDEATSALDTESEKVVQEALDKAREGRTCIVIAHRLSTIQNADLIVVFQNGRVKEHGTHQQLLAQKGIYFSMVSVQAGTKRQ

Structure (SMILES): CC(C)=CCCC(C)(O)C1CCC2(C)C1C(O)CC1C3(C)CCC(O)C(C)(C)C3C(O)CC12C (stereo not shown) [PPT, 20(s)-protopanaxatriol]
AUC fold increase with LAB supplementation compared to control groups [1]: 1.63 fold
Oral BA [2]: 3.7%
Papp A→B at 20 μM ([3]; LLC-PK1): 37.3 ± 5.6 nm/s
Papp B→A at 20 μM ([3]; LLC-PK1): 100 ± 11 nm/s
efflux ratio at 20 μM ([3]; LLC-PK1, ER): 2.7
CLint (intrinsic clearance) ([3]; llc-pk1): 231 µL/min
AUC ([4]; male): 0.0599 ± 0.0492 µg·h/mL
Cmax ([4]; male, Cmax): 9.5 ± 4.8 ng/mL
MRT ([4]; male, MRT): 19.4 ± 10.5 h
Tmax ([4]; male, Tmax): 17.4 ± 17.4 h
Relative abundance / metabolic activity following fermentation of RGE with LAB [5, 9]: significantly increased
efflux ratio at 50 µM ([6]; Caco-2, Efflux ratio (ER)): 2.7

Cmax [4]: 2.1 ± 0.9 ng/mL
MRT [4]: 18.2 ± 1.4 h
Tmax [4]: 7.5 ± 5.8 h
AUC [4]: 0.0379 ± 0.0126 µg·h/mL
Relative abundance / metabolic activity following fermentation of RGE with LAB [5]: marked decrease
A to B Papp [7]: below 0.3 × 10^−6 cm/s
Structure (SMILES): CC(C)=CCC[C@](C)(O[C@@H]1O[C@H](CO)[C@@H](O)[C@H](O)[C@H]1O)[C@H]1CC[C@]2(C)[C@@H]1[C@H](O)C[C@@H]1[C@@]3(C)CC[C@H](O[C@@H]4O[C@H](CO)[C@@H](O)[C@H](O)[C@H]4O[C@@H]4O[C@H](CO)[C@@H](O)[C@H](O)[C@H]4O)C(C)(C)[C@@H]3CC[C@]12C [GRd]
Oral bioavailability (BA) [2]: less than 5%

Structure (SMILES): CC(C)=CCCC(C)(OC1OC(CO)C(O)C(O)C1O)C1CCC2(C)C1C(O)CC1C3(C)CCC(O)C(C)(C)C3C(OC3OC(CO)C(O)C(O)C3O)CC12C (stereo not shown) [GRg1]
efflux ratio at 20 μM ([3]; LLC-PK1, LLC-PK1-P-gp cells, 20 μM, B to A Papp divided by A to B Papp, read-out: ER): 1
Papp A→B at 20 μM ([3]; LLC-PK1-P-gp cells, 20 μM, mean ± SD, n = 3, read-out: A to B permeability): 1 ± 0.2 nm/s
Papp B→A at 20 μM ([3]; LLC-PK1-P-gp cells, 20 μM, mean ± SD, n = 3, read-out: B to A permeability): 1 ± 0.3 nm/s
Relative abundance / metabolic activity following fermentation of RGE with LAB [5, 9]: marked decrease
LAB-mediated deglycosylation (formation of deglycosylated ginsenoside from the incubated ginsenoside) [8]: the highest
Papp A→B at 50 µM ([6]; CaCo-2 cell monolayers, 50 µM ginsenoside, read-out: A to B Papp): < 3 nm/s
